In PubChem BioAssay AID1959 (Broad Institute, 2009):
Calls of active or inactive are those of the source.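 Rule for the calls: active = growth-inhibition EC50 no more than tenfold above the top tested dose; inconclusive = flat fit between 30% and 70% inhibition, or unreliable fit; inactive = EC50 more than tenfold above the top tested dose.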

Test system: E. coli NEB5alpha growth, BacTiter-Glo luminescence, 4 h
Experiment: antibacterial activity against E. coli NEB5alpha – luminescence, counter-screen for MEX-5/POS-1 RNA-binding inhibitor project, dose response (AID 1959);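 note: pUC19-transformed ampicillin-resistant cells grown in LB with ampicillin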

## Cc1nc2cc(N)ccc2n1C1CCCCC1
  EC50: > 11 µM (inactive)

## O=c1[nH]n(-c2ncnc3c2cnn3-c2ccccc2)c(=O)c2ccccc12
  EC50: > 11 µM (inactive)

## O=c1cc(-c2ccccc2Cl)oc2c(NS(=O)(=O)c3cc(Cl)cc(Cl)c3O)ccc(O)c12
  EC50: > 11 µM (inactive)

## O=C1CS/C(=N/N=C/c2cccs2)N1
  EC50: > 11 µM (inactive)

## CN1CCc2cccc3c2C1Cc1ccc(O)c(O)c1-3 (stereo not given)
  EC50: > 11 µM (inactive)

## CN1C(=O)/C(=C/c2ccc(N3CCCCCC3)o2)C(=O)NC1=S
  EC50: > 11 µM (inactive)

## Cc1noc(/C=C/N(C)C)c1S(=O)(=O)N1CCC(C(=O)O)CC1
  EC50: > 11 µM (inactive)

## COc1ccc2c3c([nH]c2c1)C1CC2C(CC(O)C(OC)C2C(=O)O)CN1CC3 (stereo not given)
  EC50: > 11 µM (inactive)

## Cc1cc(N=Cc2c(O)n(-c3ccc4c(c3)OCO4)c(=O)c3ccccc23)ccn1
  EC50: > 11 µM (inactive)

## N#Cc1c(N)nc(SCc2ccccc2)c(C#N)c1-c1ccco1
  EC50: > 11 µM (inactive)

## COc1cc(C2C3CN(C)CC=C3C(C#N)=C(N)C2(C#N)C#N)ccc1OC(C)C (stereo not given)
  EC50: > 11 µM (inactive)

## COc1ccc(C2=CC3=C(Br)C(=O)C(C)(OC(=O)c4ccc(Cl)nc4)C(=O)C3=CO2)cc1 (stereo not given)
  EC50: > 11 µM (inactive)

## COc1ccc(OC)c(C2=C/C(=C/c3ccccn3)C(=O)O2)c1
  EC50: > 11 µM (inactive)

## Cc1ccc(S(=O)(=O)CCSc2nc(C)cc(C(F)(F)F)c2C#N)cc1
  EC50: > 11 µM (inactive)

## COc1ccc(NC(=O)CN2CCC(NC(=O)C3CCCCC3)CC2)c([N+](=O)[O-])c1
  EC50: > 11 µM (inactive)

## COc1ccccc1N1CC(C(=O)Nc2nnc(SCC(=O)NC(C)C)s2)CC1=O (stereo not given)
  EC50: > 11 µM (inactive)

## c1ccc(C2=NNC(c3ccccn3)=NN2)nc1
  EC50: > 11 µM (inactive)

## CC1=CC(C)(C)N2C(=O)C3(C(C#N)=C(N)OC4=C3C(=O)CC(C)(C)C4)c3c(C)c(C)cc1c32 (stereo not given)
  EC50: > 11 µM (inactive)

## O=C(O)CSc1cc(NS(=O)(=O)c2ccc(Br)cc2)c2ccccc2c1O
  EC50: > 11 µM (inactive)

## NC(=Nc1ccc(N)cc1)C(N)=Nc1ccc(N)cc1
  EC50: > 11 µM (inactive)

## Cc1ccc(S(=O)(=O)C(C#N)c2nc3ccccc3nc2N2CC(C)OC(C)C2)cc1C (stereo not given)
  EC50: > 11 µM (inactive)

## O=C(NNC(=O)c1ccc2ccccc2c1O)c1ccccc1Cl
  EC50: > 11 µM (inactive)

## O=C(O)c1ccc2c3c(ncnc13)-c1ccccc1C2=O
  EC50: > 11 µM (inactive)

## CCOC(=O)C1Nc2ccc(C(F)(F)F)cc2C2C=CCC12 (stereo not given)
  EC50: > 11 µM (inactive)

## CSc1nnc(N2C(=O)C(O)=C(C(=O)c3ccco3)C2c2ccccc2)s1 (stereo not given)
  EC50: > 11 µM (inactive)

## CCC(C)n1c(O)c(/C=N/Nc2nc3c(c(=O)n(C)c(=O)n3C)n2C)c(=O)[nH]c1=S (stereo not given)
  EC50: > 11 µM (inactive)

## COc1ccc2c(c1)C1C=CCC1C(c1cc3c(cc1Br)OCO3)N2 (stereo not given)
  EC50: > 11 µM (inactive)

## COc1ccc2nc3ccccc3nc2c1NC(=O)c1ccc(Cl)cc1Cl
  EC50: > 11 µM (inactive)

## COc1ccc(C2C(C#N)=C(/N=C/N3CCOCC3)OC3=C2C(=O)CC(C)(C)C3)cc1OC (stereo not given)
  EC50: > 11 µM (inactive)

## O=C1OCc2cc(-n3cccc3)ccc21
  EC50: > 11 µM (inactive)

## Cc1ccc(N=Nc2c(O)[nH]c3ccc(F)cc23)cc1
  EC50: > 11 µM (inactive)

## O=C(/C=C/c1ccc(O)c(O)c1)OC(Cc1ccc(O)c(O)c1)C(=O)O (stereo not given)
  EC50: > 11 µM (inactive)

## O=C(NC(=S)NNS(=O)(=O)c1ccccc1)c1cccnc1
  EC50: > 11 µM (inactive)

## Cc1cc[n+](C2=C([O-])c3ccccc3C(=O)/C2=N\S(=O)(=O)c2cccs2)cc1C
  EC50: > 11 µM (inactive)

## Cc1onc(-c2c(F)cccc2Cl)c1C(=O)N1CCCc2ccccc21
  EC50: > 11 µM (inactive)

## COCCN1CCC(CNCc2cn[nH]c2-c2ccc(C)c(C)c2)C1 (stereo not given)
  EC50: > 11 µM (inactive)

## Cc1cc(/C=c2/sc3nc4ccccc4n3c2=O)c(C)n1-c1ccccn1
  EC50: > 11 µM (inactive)

## CCN(CC)c1ccc(N=Cc2ccc(N(CC)CC)cc2O)cc1
  EC50: > 11 µM (inactive)

## O=[N+]([O-])c1cc(-c2ccc([As](=O)(O)O)cc2)ccc1[As](=O)(O)O
  EC50: > 11 µM (inactive)

## CN1C(=O)C(=Cc2ccc(N3CCCCC3)o2)C(=O)N(C)C1=S
  EC50: > 11 µM (inactive)

## COc1cccc(C2c3c(oc4ccccc4c3=O)C(=O)N2Cc2ccco2)c1 (stereo not given)
  EC50: > 11 µM (inactive)

## O=C(CC1Nc2ccccc2NC1=O)c1ccccc1 (stereo not given)
  EC50: > 11 µM (inactive)

## CC(C)(C)OC(=O)NCCCC1=CC2=CC(=O)C(C)(OC(=O)C3CCCC3)C(=O)C2=CO1 (stereo not given)
  EC50: > 11 µM (inactive)

## Oc1c(Cl)cc(Cl)c(Cl)c1Cc1c(O)c(Cl)cc(Cl)c1Cl
  EC50: > 11 µM (inactive)

## O=C(O)C(=O)/C(=C\c1cccc2ccccc12)c1ccc2ccccc2n1
  EC50: > 11 µM (inactive)

## Cc1cc(/C=N/NC(=O)c2cccc(N(C)C)c2)c(C)n1-c1cc(C(=O)O)cc(C(=O)O)c1
  EC50: > 11 µM (inactive)

## CC1(C)CC(=O)C2=C(C1)OC(N)=C(C#N)C2c1ccccc1OC(=O)N1CCOCC1 (stereo not given)
  EC50: > 11 µM (inactive)

## CCNc1nn2ccccc2c1/C=C(\C#N)C(=O)OCC
  EC50: > 11 µM (inactive)

## O=c1[nH]c(=O)n(CCc2ccccc2)c(O)c1C=NCCCn1ccnc1
  EC50: > 11 µM (inactive)

## COc1ccccc1C1C(C(C)=O)=C(C)N=c2s/c(=C\c3cc(OC)c(OC)c(OC)c3)c(=O)n21 (stereo not given)
  EC50: > 11 µM (inactive)

## Cc1cc(/C=C2\SC(=S)N(Cc3ccco3)C2=O)c(C)n1-c1cccnc1
  EC50: > 11 µM (inactive)

## COc1ccc(C2c3ccc(O)cc3Oc3ncn(Cc4ccco4)c(=N)c32)cc1OC (stereo not given)
  EC50: > 11 µM (inactive)

## Cc1ccc(C2C3CN(C(C)C)CC=C3C(C#N)=C(N)C2(C#N)C#N)cc1 (stereo not given)
  EC50: > 11 µM (inactive)

## COC(=O)c1ccccc1-n1c(CCC(=O)O)ccc1-c1ccccc1
  EC50: > 11 µM (inactive)

## O=c1[nH]c(=O)n(CCc2ccc(F)cc2)c(O)c1C=NCCCn1ccnc1
  EC50: > 11 µM (inactive)

## C/C(CCc1oc2ccc(Cl)cc2c1-c1ccc(C)o1)=N\O
  EC50: > 11 µM (inactive)

## COc1ccc(C2C(C(=O)c3cccs3)=C(O)C(=O)N2c2nnc(C)s2)cc1OC (stereo not given)
  EC50: > 11 µM (inactive)

## O=C1NC(=O)N(c2ccccc2)C(=O)/C1=C\c1ccc2c3c(cccc13)CC2
  EC50: > 11 µM (inactive)

## C/C(=N\Nc1ncnc2sc(C)c(C)c12)c1ccccn1
  EC50: > 11 µM (inactive)

## COc1cccc(C2C(C#N)=C(N)OC3=C2C(=O)CC(c2ccco2)C3)c1OCc1ccc(F)cc1 (stereo not given)
  EC50: > 11 µM (inactive)

## Cc1ccccc1C1=N/C(=C/c2cccs2)C(=O)O1
  EC50: > 11 µM (inactive)

## Cc1cc([N+](=O)[O-])cc2c1NCC1CC=CC21 (stereo not given)
  EC50: > 11 µM (inactive)

## CC1CN(C2CC(C)(C)NC(C)(C)C2)CCC1=O (stereo not given)
  EC50: > 11 µM (inactive)

## CC(C)CNC(=O)C1Nc2ccccc2C2C=CCC12 (stereo not given)
  EC50: > 11 µM (inactive)

## Oc1ccc(C2C[C@H]3CC[C@@H]2C3)cc1O (stereo not given in full)
  EC50: > 11 µM (inactive)

## Cc1oc(/N=C/c2ccc(O)cc2O)c(C#N)c1C
  EC50: > 11 µM (inactive)

## CCN(CC)C(=O)CNc1ccc(C(F)(F)F)cc1[N+](=O)[O-]
  EC50: > 11 µM (inactive)

## O=C(O)CCNc1ccc(NCCC(=O)O)c2c1C(=O)c1ccccc1C2=O
  EC50: > 11 µM (inactive)

## CC(=O)c1sc2nc(-c3cccs3)cc(C(F)(F)F)c2c1N
  EC50: > 11 µM (inactive)

## Cc1cc(C)c2c(c1)C1C=CCC1C(c1ccc(S(=O)(=O)N3CCOCC3)cc1)N2 (stereo not given)
  EC50: > 11 µM (inactive)

## O=c1[nH]c(=O)n(CC2CCCO2)c(O)c1/C=C1\C=Nc2ccccc21 (stereo not given)
  EC50: > 11 µM (inactive)

## COc1cc2c(cc1OC)-c1c(OC)c(OC)c(OC)c3ccnc(c13)C2=O
  EC50: > 11 µM (inactive)

## OC(C#Cc1ccccn1)c1cccs1 (stereo not given)
  EC50: > 11 µM (inactive)

## Cc1ccccc1NS(=O)(=O)c1cc(C(=O)N2CCCC2)ccc1C
  EC50: > 11 µM (inactive)

## COc1ccc(CCn2c(O)c(C=Nc3ccc(NC(C)=O)cc3)c(=O)[nH]c2=O)cc1OC
  EC50: > 11 µM (inactive)

## O=C(NNC(=O)c1ccccc1[N+](=O)[O-])c1csc(N2CCOCC2)n1
  EC50: > 11 µM (inactive)

## CC(=O)N=Cc1c(C)c(C#N)c(=O)n(C)c1O
  EC50: > 11 µM (inactive)

## Cc1ccc(N2C(=O)/C(=C/c3ccc(CN(CCC#N)S(C)(=O)=O)o3)C(=O)NC2=S)cc1
  EC50: > 11 µM (inactive)

## O=C1/C(=C/c2ccc(O)c(O)c2)SC(=S)N1Nc1ccccc1
  EC50: > 11 µM (inactive)

## N=C1C(c2nc3ccccc3[nH]2)=C(O)CN1c1ccc(CC(=O)O)cc1
  EC50: > 11 µM (inactive)
